Results from patent US12338483B2, “Compositions and methods for logic-gated profiling of biologic activity” (Georgia Tech Research Corporation, priority 2019, dated 2025).
Bridge positions count the residues as written; N and C are the ends. Square brackets hold non-standard residues; d marks the D form. Ends that are not written are not given here.

Legend:
GzmB and MMPs = experiment: Cleavage assay of GzmB/MMP AND-gate sensor with each MMP with and without GzmB; format: biochemical; conditions: sensor 5 μM; 300 nM GzmB and/or 100 nM different MMPs; 1.5 hours; all three MMPs; FIG. 20
Protocol: Then a cleavage assay was performed with the GzmB/MMP AND-gate sensor, testing the probe with each MMP with and without GzmB (FIG. 20).
(§1) FIGS. 20-21 show mean change in fluorescence (7D, kinetic trace) after incubation of GzmB/MMP AND-gate sensor (5 μM) with (7C) 300 nM GzmB and/or 100 nM different MMP's or (7D) 300 nM GzmB and 100 nM West Nile Virus NS3 protease, Tobacco Etch Virus protease, or MMP8 for 1.5 hours, n=3.

[1] = target: T1, GzmB and Tobacco Etch Virus protease (Homo sapiens, UniProt P10144); experiment: Incubation of GzmB/MMP AND-gate sensor with GzmB and Tobacco Etch Virus protease; format: biochemical; conditions: sensor 5 μM; 300 nM GzmB and 100 nM protease; 1.5 hours; FIG. 21
T1 construct: Tobacco Etch Virus protease
Protocol: (§2) Next the protease activity sensor was incubated with GzmB and either MMP8 or one of two viral proteases (West Nile Virus NS3 protease and Tobacco Etch Virus protease) to show the AND-gate sensor can distinguish immune activity in tumors from viral infections (FIG. 21). The sensor produced low signals with the viral proteases compared to MMP8.
as §1

GzmB = target: T2, GzmB (Homo sapiens, UniProt P10144) and West Nile Virus NS3 protease; experiment: Incubation of GzmB/MMP AND-gate sensor with GzmB and West Nile Virus NS3 protease; format: biochemical; conditions: sensor 5 μM; 300 nM GzmB and 100 nM protease; 1.5 hours; FIG. 21
T2 construct: West Nile Virus NS3 protease
Protocol: as §2, §1

[2] = target: T3, GzmB in supernatant of OT1 T-cell co-incubation with EL4 or EG7-OVA cells, and Thrb (UniProt P00734+P04187); experiment: Cleavage assay with supernatant of transgenic T-cell killing assay as GzmB source, plus Thrb; format: cell-based, mice; conditions: nanoparticle-conjugated sensor 1 μM; 10% supernatant from EL4 and EG7-OVA co-incubation and/or 3.7 Thrb; 12 hours; FIG. 17
T3 construct: using the supernatant as a GzmB source and adding Thrb; endogenous in cells; host or cells: T cells from OT1 mice co-incubated with EL4 or EG7-OVA cells; supernatant used at 10%
Protocol: FIGS. 15-17 show an example of the disclosed AND-gate protease activity sensors used with a living system. The sensors were evaluated in an in vitro transgenic T-cell killing assay in which cytotoxic T-cells taken from OT1 mice were co-incubated with target cells EL4 and EG7-OVA (FIG. 15). OT1 T cells can recognize the OVA antigen and mount an immune response, so the T-cells would theoretically respond to the EG7-OVA cells but not to the EL4 cells. Supernatant was harvested from the co-incubation and quantified the immune response by GzmB secretion using ELISA (FIG. 16). The concentration was measured after overnight co-incubation at 37° C. with target cells, as measured by ELISA, n=3. It was confirmed that co-incubation of OT1 cells with EG7-OVA cells, but not with EL4 cells, increases GzmB secretion by OT1 cells.
Then we cleavage assays were run with the AND-gate sensors, using the supernatant as a GzmB source and adding Thrb. […] Data for EL4 and EG7-OVA were normalized by subtraction of trace using OT1-only supernatant, and data for EL4+Thrb and EG7-OVA+Thrb were normalized by subtraction of trace using OT1-only supernatant and Thrb.

GzmB and Thrb = experiment: Cleavage assay of GzmB/Thrb AND-gate sensor with GzmB and/or Thrb; format: biochemical
Protocol: Next, the AND-gate logic protease sensor was tested in a cleavage assay.
Thus, the presence of even small amounts of a protease can be detected if the other protease is also present. FIGS. 13-14 show: mean change in fluorescence after incubation of the AND-gate sensor with (FIG. 13) 9.2 nM Thrb and varying concentrations of GzmB (0-150 nM) or (FIG. 14) 300 nM GzmB and varying concentrations of Thrb (0-4.6 nM) for 2 hours, n=2. For all fluorescent readings, samples were excited at 485 nm, emission was measured at 528 nm, and samples were incubated at 37° C.

T3 sequence (P04187 21-247, one chain of several): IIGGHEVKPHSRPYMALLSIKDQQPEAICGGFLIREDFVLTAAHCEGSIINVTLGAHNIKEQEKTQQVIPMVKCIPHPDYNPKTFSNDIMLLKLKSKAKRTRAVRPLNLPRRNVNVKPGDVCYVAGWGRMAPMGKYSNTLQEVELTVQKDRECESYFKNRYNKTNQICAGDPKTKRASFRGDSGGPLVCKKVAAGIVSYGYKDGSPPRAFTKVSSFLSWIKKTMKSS
T2 sequence (P10144 21-247): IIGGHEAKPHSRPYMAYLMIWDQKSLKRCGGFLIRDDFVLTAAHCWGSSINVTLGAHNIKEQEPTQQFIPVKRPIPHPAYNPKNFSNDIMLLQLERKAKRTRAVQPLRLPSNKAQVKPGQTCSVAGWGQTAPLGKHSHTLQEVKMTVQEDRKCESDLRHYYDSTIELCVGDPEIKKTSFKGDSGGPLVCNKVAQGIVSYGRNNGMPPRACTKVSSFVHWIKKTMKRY
T1 sequence (P10144 21-247): as above

| Substance | change of fluorescent signal on addition of GzmB to MMPs (GzmB and MMPs) | signal with GzmB and Tobacco Etch Virus protease compared to MMP8 [1] | signal with GzmB and West Nile Virus NS3 protease compared to MMP8 (GzmB) | signal (mean change in fluorescence) with T-cell co-incubation supernatant [2] | sensitivity of fluorescence to protease concentration (GzmB and Thrb; 9.2 nM Thrb with 0-150 nM GzmB, or 300 nM GzmB with 0-4.6 nM Thrb, 2 hours, FIGS. 13-14) | fluorescent signal, both proteases present together (GzmB and Thrb; nanoparticle-conjugated sensor 1 μM, 125 nM GzmB and 3.7 nM Thrb, 12 hours, FIG. 12) | fluorescent signal, either protease present alone (GzmB and Thrb; nanoparticle-conjugated sensor 1 μM, 125 nM GzmB or 3.7 nM Thrb, 12 hours, FIG. 12) |
| --- | --- | --- | --- | --- | --- | --- | --- |
| GzmB/MMP AND-gate sensor: AND-gate protease activity sensor (SEQ ID NO: 2) that probes both GzmB and MMPs (CGIEFDSGGKGAPAALRAAGGCK; MOD_RES (11)..(11) D-Gly) | drastically increased the fluorescent signal by over two-fold | low signals | low signals | – | – | – | – |
| GzmB/Thrb AND-gate sensor: Disulfide-cyclized peptide (SEQ ID NO: 1) with DABCYL quencher, 5-FAM reporter, GzmB and Thrb substrates and an azide for click conjugation (KCGIEFDSGGKGG[dF]PRSGGGCK; disulfide 2-21 (inferred); also: DABCYL quencher, 5-FAM reporter, azide for click conjugation) | – | – | – | high signal was attained only when Thrb was added to the GzmB-high OT1/EG7-OVA supernatant | very sensitive to small changes in the concentration of both proteases even in the nanomolar range | high fluorescent signal | not when either protease is present alone |
